Measured values taken from patent US20240207350A1, “COMBINATION PREPARATION CONTAINING RESVERATROL” (priority 2021, published 2024).

Test system: Circulating human tumour cells (CTC's) characterised by EpCAM
Assay: in vitro vitality reduction of circulating tumour cells from a blood sample of a prostate carcinoma patient
Type: cell-based
Details: CTCs of a prostate carcinoma patient
Text: A patient, suffering from a prostate carcinoma, was examined by checking a blood sample. Circulating human tumour cells (CTC's) characterised by EpCAM and additional cell surface markers have been used. The CTC's have been tested with different anti-cancer drugs. […] Furthermore, the positive effects could be shown to be dose dependent.

C[C@H]1[C@H](OC(=O)CCC(=O)O)O[C@@H]2O[C@@]3(C)CC[C@H]4[C@H](C)CC[C@@H]1[C@@]24OO3 [Artesunat]
Concentration- and time-dependent specific in vitro vitality reduction (%) in the presence of eutherapeutic concentrations (eutherapeutic concentration, not specified): 60%

COc1cc(/C=C/C(=O)CC(=O)/C=C/c2ccc(O)c(OC)c2)ccc1O [Curcumin, curcumin]
Concentration- and time-dependent specific in vitro vitality reduction (%) in the presence of eutherapeutic concentrations (450 mg): 80%

C=C1CC[C@H](O)C/C1=C/C=C1\CCC[C@]2(C)[C@@H]([C@H](C)CCCC(C)(C)O)CC[C@@H]12 [Example 25-OH-D3, 25-OH-D3]
Concentration- and time-dependent specific in vitro vitality reduction (%) in the presence of eutherapeutic concentrations (100 ng/ml): 25%
Concentration- and time-dependent specific in vitro vitality reduction (%) in the presence of eutherapeutic concentrations (200 ng/ml): 30%

CCC(=O)C(CC(C)N(C)C)(c1ccccc1)c1ccccc1 (centres unmarked) [Methadone]
Concentration- and time-dependent specific in vitro vitality reduction (%) in the presence of eutherapeutic concentrations (3 × 15 drops): 30%
